ChEMBL document CHEMBL1201862, “PubChem BioAssay data set” (2004)
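Exposure lasted 48 hours, with cells grown in 96-well plates and compounds tested at five concentrations. GI50 = concentration required for 50% inhibition of growth.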 Calls of active or inactive are those of the source. No stated cut-off is given here; in the data, active = GI50 up to about 1.1 µM and inactive = higher.

Assays:
Assay in all cases: NCI tumour cell line growth inhibition, 48 h
PC-3 = test system: PC-3
NCI-H460 = test system: NCI-H460
SW-620 = test system: SW-620
OVCAR-3 = test system: OVCAR-3
SK-OV-3 = test system: SK-OV-3
K562 = test system: K562
EKVX = test system: EKVX
MDA-MB-435 = test system: MDA-MB-435
NCI/ADR-RES = test system: NCI/ADR-RES
786-0 = test system: 786-0
BT-549 = test system: BT-549
OVCAR-4 = test system: OVCAR-4
SF-295 = test system: SF-295
NCI-H23 = test system: NCI-H23
MOLT-4 = test system: MOLT-4
SNB-19 = test system: SNB-19
MDA-MB-231 = test system: MDA-MB-231
DU-145 = test system: DU-145
SK-MEL-5 = test system: SK-MEL-5
SR = test system: SR

Measured: GI50

CCCCCCCCCCCCO[PH](=O)OCCCCCCCCCCCC
inactive: PC-3 > 100 µM | NCI-H460 > 100 µM | SW-620 > 100 µM | OVCAR-3 > 100 µM | SK-OV-3 > 100 µM | K562 > 100 µM | EKVX > 100 µM | MDA-MB-435 > 100 µM | NCI/ADR-RES > 100 µM | 786-0 > 100 µM | BT-549 > 100 µM | OVCAR-4 > 100 µM | SF-295 > 100 µM | NCI-H23 > 100 µM | MOLT-4 > 100 µM | SNB-19 > 100 µM | MDA-MB-231 > 100 µM | DU-145 > 100 µM | SK-MEL-5 > 100 µM

N#CC(NCCc1ccccc1)c1ccc(C(C#N)NCCc2ccccc2)cc1 (stereo unspecified)
inactive: PC-3 > 100 µM | NCI-H460 > 100 µM | SW-620 32.8 µM | OVCAR-3 > 100 µM | SK-OV-3 > 100 µM | K562 24.2 µM | EKVX > 100 µM | MDA-MB-435 33.8 µM | NCI/ADR-RES 24.3 µM | 786-0 72.4 µM | BT-549 20.5 µM | OVCAR-4 > 100 µM | SF-295 > 100 µM | NCI-H23 30.7 µM | MOLT-4 32.6 µM | SNB-19 61.2 µM | MDA-MB-231 > 100 µM | DU-145 > 100 µM | SK-MEL-5 32.1 µM

O=C(Nc1nc(C23CC4CC(CC(C4)C2)C3)cs1)c1cc2c(ccc3ccccc32)oc1=O
inactive: PC-3 > 100 µM | NCI-H460 > 100 µM | SR > 100 µM | SW-620 > 100 µM | OVCAR-3 > 100 µM | K562 > 100 µM | EKVX > 100 µM | MDA-MB-435 > 100 µM | NCI/ADR-RES > 100 µM | 786-0 > 100 µM | BT-549 > 100 µM | OVCAR-4 > 100 µM | SF-295 > 100 µM | NCI-H23 > 100 µM | MOLT-4 > 100 µM | SNB-19 > 100 µM | MDA-MB-231 > 100 µM | DU-145 > 100 µM | SK-MEL-5 > 100 µM

N#Cc1c(N)nc(-c2ccc(Cl)cc2)c2c1-c1ccccc1S(=O)(=O)CC2
inactive: PC-3 > 100 µM | NCI-H460 45.1 µM | SR 56.4 µM | SW-620 > 100 µM | OVCAR-3 > 100 µM | K562 > 100 µM | MDA-MB-435 > 100 µM | NCI/ADR-RES 52.5 µM | 786-0 27.2 µM | BT-549 27.5 µM | OVCAR-4 23.2 µM | NCI-H23 66.2 µM | SNB-19 29.1 µM | MDA-MB-231 > 100 µM | DU-145 74.5 µM | SK-MEL-5 > 100 µM

c1ccc(CSCCc2ccncc2)cc1
inactive: PC-3 > 100 µM | NCI-H460 > 100 µM | SW-620 > 100 µM | OVCAR-3 > 100 µM | SK-OV-3 > 100 µM | K562 > 100 µM | EKVX 67.9 µM | MDA-MB-435 > 100 µM | NCI/ADR-RES > 100 µM | 786-0 > 100 µM | BT-549 > 100 µM | OVCAR-4 44 µM | SF-295 > 100 µM | NCI-H23 > 100 µM | MOLT-4 > 100 µM | SNB-19 > 100 µM | MDA-MB-231 15.8 µM | DU-145 > 100 µM | SK-MEL-5 > 100 µM

O=C(OCc1ccccc1)c1nc2ccccc2n1S(=O)(=O)c1ccccc1
inactive: PC-3 > 100 µM | NCI-H460 > 100 µM | SW-620 > 100 µM | OVCAR-3 > 100 µM | SK-OV-3 > 100 µM | K562 > 100 µM | EKVX > 100 µM | MDA-MB-435 > 100 µM | NCI/ADR-RES > 100 µM | 786-0 > 100 µM | BT-549 > 100 µM | OVCAR-4 > 100 µM | SF-295 > 100 µM | NCI-H23 > 100 µM | MOLT-4 > 100 µM | SNB-19 > 100 µM | MDA-MB-231 > 100 µM | DU-145 > 100 µM | SK-MEL-5 80.4 µM
